According to patent US9657015B2, “Substituted bicyclic dihydropyrimidinones and their use as inhibitors of neutrophil elastase activity” (Boehringer Ingelheim International GmbH, priority 2014, dated 2017):

Experiments:
[1] = molecular target: neutrophil elastase in human plasma (Homo sapiens (Human), UniProt P08246); test: Neutrophil elastase inhibitory activity in human plasma; format: biochemical; details: human plasma assay (zymosan-stimulated blood plasma), substrate 250 μM, pH 7.5
[2] = molecular target: Human neutrophil elastase (Homo sapiens (Human), UniProt P08246); test: Human Neutrophil Elastase Assay; format: biochemical; details: substrate MeOSuc-Ala-Ala-Pro-Val-AMC 250 μM, pH 7.5, room temperature
Sequence of Human neutrophil elastase (P08246 30-247): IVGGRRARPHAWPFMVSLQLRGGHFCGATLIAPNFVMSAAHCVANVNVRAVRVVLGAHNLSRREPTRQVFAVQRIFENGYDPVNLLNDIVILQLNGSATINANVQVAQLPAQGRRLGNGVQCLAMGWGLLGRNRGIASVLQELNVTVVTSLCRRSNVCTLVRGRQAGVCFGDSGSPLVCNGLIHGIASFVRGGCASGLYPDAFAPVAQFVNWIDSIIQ

Sequence of neutrophil elastase in human plasma (P08246 30-247): as above

IC50 [1] | IC50 [2] | SMILES
< 1 nM | < 1 nM | CN1C(=O)N(c2cccc(C(F)(F)F)c2)C2=C(C(=O)NCC2)C1c1ccc(C#N)cc1CO (racemic) [Example 29, 3-(Hydroxymethyl)-4-{3-methyl-2,5-dioxo-1-[3-(trifluoromethyl)phenyl]-1H,2H,3H,4H,5H,6H,7H,8H-pyrido[4,3-d]pyrimidin-4-yl}benzonitrile]
11 nM | 5.7 nM | N#Cc1ccc(C2NC(=O)N(c3cccc(C(F)(F)F)c3)C3=C2C(=O)NCC3)cc1 (racemic) [Example 1, 4-(2,5-Dioxo-1-(3-(trifluoromethyl)phenyl)-1,2,3,4,5,6,7,8-octahydropyrido[4,3-d]-pyrimidin-4-yl)benzonitrile]
7.8 nM | 3.2 nM | CNC(=O)CN1C(=O)N(c2cccc(C(F)(F)F)c2)C2=C(C(=O)N(C)CC2)C1c1ccc(C#N)cc1 (stereo not drawn) [Example 15, 2-(4-(4-Cyanophenyl)-6-methyl-2,5-dioxo-1-(3-(trifluoromethyl)phenyl)-1,2,5,6,7,8-hexahydropyrido[4,3-d]pyrimidin-3(4H)-yl)-N-methylacetamide]
2.5 nM | < 1 nM | CN1C(=O)N(c2cccc(C(F)(F)F)c2)C2=C(C(=O)NCC2)C1c1ccc(C#N)cc1Br (stereo not drawn) [Example 22, 3-Bromo-4-{3-methyl-2,5-dioxo-1-[3-(trifluoromethyl)phenyl]-1H,2H,3H,4H,5H,6H,7H,8H-pyrido[4,3-d]pyrimidin-4-yl}benzonitrile]
8.2 nM | 6.9 nM | N#Cc1ccc(C2NC(=O)N(c3cccc(C(F)F)c3)C3=C2C(=O)NCC3)cc1 (racemic) [Example 2, 4-(1-(3-(Difluoromethyl)phenyl)-2,5-dioxo-1,2,3,4,5,6,7,8-octahydropyrido[4,3-d]-pyrimidin-4-yl)benzonitrile]
6.9 nM | 3.7 nM | N#Cc1ccc(C2NC(=O)N(c3cccc(C(F)(F)F)c3)C3=C2C(=O)N(C(=O)NCCCO)CC3)cc1 (stereo not drawn) [Example 20, 4-(4-Cyanophenyl)-N-(3-hydroxypropyl)-2,5-dioxo-1-[3-(trifluoromethyl)phenyl]-1H,2H,3H,4H,5H,6H,7H,8H-pyrido[4,3-d]pyrimidine-6-carboxamide]
2.4 nM | 2.7 nM | N#Cc1ccc(C2C3=C(CCNC3=O)N(c3cccc(C(F)(F)F)c3)C(=O)N2CC(=O)O)cc1 (stereo not drawn) [Example 10, 2-(4-(4-Cyanophenyl)-2,5-dioxo-1-(3-(trifluoromethyl)phenyl)-1,2,5,6,7,8-hexahydropyrido[4,3-d]pyrimidin-3(4H)-yl)acetic acid]
1.1 nM | 1.9 nM | CN1C(=O)N(c2cccc(C(F)(F)F)c2)C2=C(C(=O)NCC2)C1c1ccc(C#N)cc1 (stereo not drawn) [Example 5, 4-(3-Methyl-2,5-dioxo-1-(3-(trifluoromethyl)phenyl)-1,2,3,4,5,6,7,8-octahydropyrido-[4,3-d]pyrimidin-4-yl)benzonitrile]
1.1 nM | < 1 nM | N#Cc1ccc(C2NC(=O)N(c3cccc(C(F)(F)F)c3)C3=C2C(=O)NCC3)c(-c2cnco2)c1 (stereo not drawn) [Example 23, 4-{2,5-Dioxo-1-[3-(trifluoromethyl)phenyl]-1H,2H,3H,4H,5H,6H,7H,8H-pyrido-[4,3-d]pyrimidin-4-yl}-3-(1,3-oxazol-5-yl)benzonitrile]
1.9 nM | 1.9 nM | N#Cc1ccc(C2NC(=O)N(c3cccc(C(F)(F)F)c3)C3=C2C(=O)NCC3)c(Br)c1 (stereo not drawn) [Example 21, 3-Bromo-4-{2,5-dioxo-1-[3-(trifluoromethyl)phenyl]-1H,2H,3H,4H,5H,6H,7H,8H-pyrido[4,3-d]pyrimidin-4-yl}benzonitrile]

SMILES | IC50 [1] | IC50 [2]
N#Cc1ccc(C2C3=C(CCNC3=O)N(c3cccc(C(F)(F)F)c3)C(=O)N2CC(=O)N2CCOCC2)cc1 (stereo not drawn) [Example 12.7] | < 1 nM | < 1 nM
COCCNC(=O)CN1C(=O)N(c2cccc(C(F)(F)F)c2)C2=C(C(=O)NCC2)C1c1ccc(C#N)cc1 (stereo not drawn) [Example 12.4] | 5.1 nM | 2 nM
